In paper PMC5520057, “Modulation of nongenomic activation of PI3K signalling by tetramerization of N-terminally-cleaved RXRα” (Nature Communications, 2017):

How the values were obtained:
[1] = test system: tRXRα; experiment: MCF-7/tRXRα xenograft tumours, immunostaining; format: in vivo; details: nude mice; K-80003 20 mg kg^−1 i.p., 12 days; anti-Myc
Protocol: Cells mounted on glass slides or tumour tissue frozen sections (5-μm-thick) were washed with PBS and fixed in 4% paraformaldehyde (PFA) for 15 min and permeabilized with PBS containing 0.1% Triton X-100 for 15 min. Fixed cells or tumour tissues were blocked with 5 mg ml^−1 BSA in PBS for 30 min at room temperature, followed with incubation with primary antibodies for 3 h and secondary antibodies at room temperature for 1 h and co-stained with 4′6′-diamidino-2-phenylindole (DAPI) to visualize nuclei. The images were taken under an LSM-510 confocal laser scanning microscope system (Carl Zeiss).
(§1) For nude mice xenograft study, Myc-RXRα and Myc-tRXRα cloned into pcdna3.0 vector were stably transfected into MCF-7 cells, and the resulting stable clones and control clone (2 × 10^6 cells in 100 μl) were injected subcutaneously into nude mice (BALB/c, SPF grade, 16–18 g, 4–5-week old). For drug treatment, mice were intraperitoneally injected (i.p.) daily with K-80003 (20 mg kg^−1) diluted in Tween-80 or vehicle (tween-80). Body weight and tumour size were measured every 2 days. Mice were killed after 12-day drug treatment and the tumours removed for various assessments. […]

[2] = test system: MCF-7 xenograft tumours; experiment: MCF-7/tRXRα xenograft tumours, western blotting; format: in vivo, nude mice; details: MCF-7/tRXRα tumour; K-80003 20 mg kg^−1 i.p., 12 days
Protocol: Proteins or cell lysates were electrophoresed by SDS-PAGE gel and transferred to polyvinylidene difluoride (PVDF) membrane. The membranes were blocked with 5% skimmed milk in TBST (50 mM Tris-HCl (pH 7.4), 150 mM NaCl and 0.1% Tween20) for 1 h, then incubated with primary antibodies and secondary antibodies and detected using ECL system (Thermo). The dilutions of the primary antibodies were anti-RXRα (ΔN197, Santa Cruz) in 1:1,000, anti-PARP (H-250, Santa Cruz) in 1:3,000, anti-p85α (Millipore) in 1:1,000, anti-p-AKT (D9E, Cell Signaling Technology) in 1:1000, anti-AKT1/2/3 (H-136, Santa Cruz) in 1:1,000, anti-β-actin (Sigma) in 1:5,000, anti-c-myc (9E10, Santa Cruz) in 1:3,000, anti-HA (F-7, Santa Cruz) in 1:3,000, anti-Flag (F1804, Sigma) in 1:3,000. Images of all uncropped western blots can be found in Supplementary Figs 10–14.
as §1, with “days.” for “days. Mice were killed after 12-day drug treatment and the tumours removed for various assessments.”

Structure (SMILES): CC1=C(CC(=O)O)c2cc(F)ccc2/C1=C\c1ccc(C(C)C)cc1 [K-80003]
- subcellular localization of tRXRα in xenograft tumours [1]: a significant amount of tRXRα was found in the nucleus
- AKT activation in tumours [2]: reduced AKT activation
- PARP cleavage in tumours [2]: enhanced PARP cleavage
